ChEMBL document CHEMBL3885861, “Open TG-GATES”

Organism: Rattus norvegicus
Experiment: Open TG-GATES - Regimen: Daily Repeat
Format: toxicity, organism-based, Sprague-Dawley
Set-up: regimen Daily Repeat, gender Male, age 6 weeks
Settings: in vivo, po, route gavage; for APTT / Bas / Eos / Fbg / Hb / Ht / Lym / MCH / MCHC / MCV / Mono / Neu / PT / Plat / RBC / Ret / WBC: tissue Blood; for KIDNEY_L / KIDNEY_R / KIDNEY_TOTAL: tissue Kidney; for LIVER: tissue Liver; for A/G / ALP / ALT / AST / BUN / CRE / Ca / Cl / DBIL / GLC / IP / K / LDH / Na / PL / RALB / TBIL / TC / TG / TP / gamma-GTP: tissue Plasma
[1] = 0 mg/kg, 72 h, dose level Control, time 3 day
[2] = 0 mg/kg, […], dose level Control, time 7 day
[3] = 0 mg/kg, […], dose level Control, time 14 day
[4] = 0 mg/kg, […], dose level Control, time 28 day
[5] = 30 mg/kg, 72 h, dose level Low, time 3 day
[6] = 30 mg/kg, […], dose level Low, time 7 day
[7] = 30 mg/kg, […], dose level Low, time 14 day
[8] = 30 mg/kg, […], dose level Low, time 28 day

## CCc1cc(C(N)=S)ccn1 [ETHIONAMIDE]
[1]
  TERMINAL_BW: 250.2 g
  APTT: 17.3 s
  Bas: 0%
  Eos: 1%
  Fbg: 262 mg/dL
  Hb: 13.2 g/dL
  Ht: 38.9%
  Lym: 73%
  MCH: 22 pg
  MCHC: 33.9%
  MCV: 64.7 fL
  Mono: 7.6%
  Neu: 18.6%
  PT: 11.9 s
  Plat: 128 x10_4/uL
  RBC: 601.2 x10_4/ul
  Ret: 12.2%
  WBC: 130.2 x10_2/uL
  KIDNEY_L: 1.1 g
  KIDNEY_R: 1.2 g
  KIDNEY_TOTAL: 2.3 g
  LIVER: 12.8 g
  A/G: 1.6
  ALP: 851.8 IU/L
  ALT: 39 IU/L
  AST: 62.8 IU/L
  BUN: 18.2 mg/dL
  CRE: 0.5 mg/dL
  Ca: 11 mg/dL
  Cl: 104.6 meq/L
  DBIL: 0.018 mg/dL
  GLC: 188.6 mg/dL
  IP: 7.3 mg/dL
  K: 4.6 meq/L
  LDH: 80.2 IU/L
  Na: 141 meq/L
  PL: 153 mg/dL
  RALB: 3.6 g/dL
  TBIL: 0.3 mg/dL
  TC: 80.6 mg/dL
  TG: 99 mg/dL
  TP: 5.8 g/dL
  gamma-GTP: 2 IU/L
[2]
  TERMINAL_BW: 270.2 g
  APTT: 17.5 s
  Bas: 0%
  Eos: 1%
  Fbg: 218.4 mg/dL
  Hb: 14.1 g/dL
  Ht: 41.5%
  Lym: 78%
  MCH: 21.4 pg
  MCHC: 34%
  MCV: 62.9 fL
  Mono: 8%
  Neu: 13%
  PT: 11.5 s
  Plat: 119.6 x10_4/uL
  RBC: 661.6 x10_4/ul
  Ret: 3.8%
  WBC: 107.3 x10_2/uL
  KIDNEY_L: 1.2 g
  KIDNEY_R: 1.3 g
  KIDNEY_TOTAL: 2.5 g
  LIVER: 13.2 g
  A/G: 1.6
  ALP: 836.8 IU/L
  ALT: 30.8 IU/L
  AST: 58.4 IU/L
  BUN: 18.4 mg/dL
  CRE: 0.4 mg/dL
  Ca: 10.2 mg/dL
  Cl: 103.8 meq/L
  DBIL: 0.064 mg/dL
  GLC: 195.6 mg/dL
  IP: 7.3 mg/dL
  K: 4.8 meq/L
  LDH: 74.6 IU/L
  Na: 140 meq/L
  PL: 153.4 mg/dL
  RALB: 3.7 g/dL
  TBIL: 0.3 mg/dL
  TC: 74.2 mg/dL
  TG: 129.4 mg/dL
  TP: 6 g/dL
  gamma-GTP: 2 IU/L
[3]
  TERMINAL_BW: 326.8 g
  APTT: 18.7 s
  Bas: 0%
  Eos: 1%
  Fbg: 215.4 mg/dL
  Hb: 14.8 g/dL
  Ht: 43.6%
  Lym: 79.6%
  MCH: 20.5 pg
  MCHC: 33.8%
  MCV: 60.8 fL
  Mono: 5.4%
  Neu: 14.2%
  PT: 12 s
  Plat: 120.6 x10_4/uL
  RBC: 718.8 x10_4/ul
  Ret: 4%
  WBC: 122.9 x10_2/uL
  KIDNEY_L: 1.3 g
  KIDNEY_R: 1.3 g
  KIDNEY_TOTAL: 2.7 g
  LIVER: 14.6 g
  A/G: 2.3
  ALP: 758.4 IU/L
  ALT: 32 IU/L
  AST: 62 IU/L
  BUN: 19.8 mg/dL
  CRE: 0.5 mg/dL
  Ca: 10.7 mg/dL
  Cl: 105.6 meq/L
  DBIL: 0.052 mg/dL
  GLC: 196.2 mg/dL
  IP: 6.8 mg/dL
  K: 4.7 meq/L
  LDH: 68.6 IU/L
  Na: 142 meq/L
  PL: 146.2 mg/dL
  RALB: 4.1 g/dL
  TBIL: 0.3 mg/dL
  TC: 68.8 mg/dL
  TG: 111.6 mg/dL
  TP: 5.8 g/dL
  gamma-GTP: 1.4 IU/L
[4]
  TERMINAL_BW: 416.8 g
  APTT: 18.6 s
  Bas: 0%
  Eos: 1.6%
  Fbg: 235.8 mg/dL
  Hb: 15.6 g/dL
  Ht: 46%
  Lym: 78.8%
  MCH: 19.6 pg
  MCHC: 34%
  MCV: 57.7 fL
  Mono: 6.6%
  Neu: 13.2%
  PT: 11.9 s
  Plat: 116.1 x10_4/uL
  RBC: 796.2 x10_4/ul
  Ret: 4.8%
  WBC: 122.5 x10_2/uL
  KIDNEY_L: 1.6 g
  KIDNEY_R: 1.6 g
  KIDNEY_TOTAL: 3.2 g
  LIVER: 17.7 g
  A/G: 1.8
  ALP: 523.4 IU/L
  ALT: 31.6 IU/L
  AST: 55.6 IU/L
  BUN: 21.2 mg/dL
  CRE: 0.6 mg/dL
  Ca: 10.2 mg/dL
  Cl: 104.4 meq/L
  DBIL: 0.02 mg/dL
  GLC: 199.4 mg/dL
  IP: 6 mg/dL
  K: 4.6 meq/L
  LDH: 74.8 IU/L
  Na: 140.4 meq/L
  PL: 141.2 mg/dL
  RALB: 4 g/dL
  TBIL: 0.3 mg/dL
  TC: 69 mg/dL
  TG: 157.2 mg/dL
  TP: 6.2 g/dL
  gamma-GTP: 1.8 IU/L
[5]
  TERMINAL_BW: 240.4 g
  APTT: 17.3 s
  Bas: 0%
  Eos: 1.6%
  Fbg: 217.6 mg/dL
  Hb: 14.2 g/dL
  Ht: 42.2%
  Lym: 75%
  MCH: 21 pg
  MCHC: 33.7%
  MCV: 62.3 fL
  Mono: 6.6%
  Neu: 17.4%
  PT: 11.5 s
  Plat: 130.1 x10_4/uL
  RBC: 677.6 x10_4/ul
  Ret: 9.8%
  WBC: 94.2 x10_2/uL
  KIDNEY_L: 1.1 g
  KIDNEY_R: 1.1 g
  KIDNEY_TOTAL: 2.2 g
  LIVER: 12.2 g
  A/G: 1.8
  ALP: 919.8 IU/L
  ALT: 34.4 IU/L
  AST: 60 IU/L
  BUN: 18 mg/dL
  CRE: 0.5 mg/dL
  Ca: 10.7 mg/dL
  Cl: 105.4 meq/L
  DBIL: 0.008 mg/dL
  GLC: 190.8 mg/dL
  IP: 7.2 mg/dL
  K: 4.6 meq/L
  LDH: 84 IU/L
  Na: 141.2 meq/L
  PL: 152.6 mg/dL
  RALB: 3.6 g/dL
  TBIL: 0.2 mg/dL
  TC: 80 mg/dL
  TG: 100.4 mg/dL
  TP: 5.6 g/dL
  gamma-GTP: 2 IU/L
[6]
  TERMINAL_BW: 280.6 g
  APTT: 16.9 s
  Bas: 0%
  Eos: 1%
  Fbg: 223.4 mg/dL
  Hb: 13.9 g/dL
  Ht: 41.1%
  Lym: 71%
  MCH: 21.2 pg
  MCHC: 34%
  MCV: 62.5 fL
  Mono: 9.4%
  Neu: 18.8%
  PT: 11.5 s
  Plat: 132.9 x10_4/uL
  RBC: 657.4 x10_4/ul
  Ret: 5%
  WBC: 131.2 x10_2/uL
  KIDNEY_L: 1.2 g
  KIDNEY_R: 1.2 g
  KIDNEY_TOTAL: 2.4 g
  LIVER: 13.8 g
  A/G: 1.6
  ALP: 859.6 IU/L
  ALT: 31.8 IU/L
  AST: 57.2 IU/L
  BUN: 20 mg/dL
  CRE: 0.4 mg/dL
  Ca: 10.4 mg/dL
  Cl: 103.2 meq/L
  DBIL: 0.078 mg/dL
  GLC: 197.2 mg/dL
  IP: 6.8 mg/dL
  K: 5 meq/L
  LDH: 95.2 IU/L
  Na: 139.2 meq/L
  PL: 143.6 mg/dL
  RALB: 3.6 g/dL
  TBIL: 0.3 mg/dL
  TC: 71.8 mg/dL
  TG: 119.6 mg/dL
  TP: 5.9 g/dL
  gamma-GTP: 2 IU/L
[7]
  TERMINAL_BW: 330.7 g
  APTT: 16.8 s
  Bas: 0%
  Eos: 1.2%
  Fbg: 223 mg/dL
  Hb: 14.9 g/dL
  Ht: 43.6%
  Lym: 76.4%
  MCH: 20.7 pg
  MCHC: 34.1%
  MCV: 60.6 fL
  Mono: 4%
  Neu: 18%
  PT: 11.8 s
  Plat: 125.2 x10_4/uL
  RBC: 720.8 x10_4/ul
  Ret: 4.5%
  WBC: 124.4 x10_2/uL
  KIDNEY_L: 1.4 g
  KIDNEY_R: 1.4 g
  KIDNEY_TOTAL: 2.7 g
  LIVER: 15 g
  A/G: 2.3
  ALP: 705.8 IU/L
[8]
  TERMINAL_BW: 406.9 g
  APTT: 17.4 s
  Bas: 0%
  Eos: 1.4%
  Fbg: 234.8 mg/dL
  Hb: 15.5 g/dL
  Ht: 45.4%
  Lym: 74%
  MCH: 19.8 pg
  MCHC: 34.2%
  MCV: 57.7 fL
  Mono: 6%
  Neu: 19.2%
  PT: 11.7 s
  Plat: 123.5 x10_4/uL
  RBC: 785.8 x10_4/ul
  Ret: 5.4%
  WBC: 154 x10_2/uL
  KIDNEY_L: 1.5 g
  KIDNEY_R: 1.6 g
  KIDNEY_TOTAL: 3.1 g
  LIVER: 17.7 g
